# Assay results from ChEMBL document CHEMBL3046002, “Synthesis and antimicrobial activity of coumarin pyrazole pyrimidine 2,4,6(1H,3H,5H)triones and thioxopyrimidine4,6(1H,5H)diones” (2013).
# Calls of active or inactive are those of the source. The rule behind the calls is not given here.
# What was measured:
# [1] = test system: Aspergillus niger; assay: Antimicrobial activity against Aspergillus niger assessed as diameter of growth inhibition zone at 30 ug/ml after 48 hr by agar cup bioassay; type: functional; details: read-out: DIZ
# [2] = test system: Aspergillus niger; assay: Antimicrobial activity against Aspergillus niger assessed as growth inhibition zone after 48 hr by agar cup bioassay; type: functional, organism-based
# [3] = test system: Staphylococcus aureus; assay: Antimicrobial activity against Staphylococcus aureus assessed as growth inhibition after 24 hr by broth dilution method; type: functional
# [4] = test system: Pseudomonas aeruginosa; assay: Antimicrobial activity against Pseudomonas aeruginosa assessed as growth inhibition after 24 hr by broth dilution method; type: functional
# [5] = test system: Klebsiella pneumoniae; assay: Antimicrobial activity against Klebsiella pneumoniae assessed as growth inhibition after 24 hr by broth dilution method; type: functional
# [6] = test system: Escherichia coli; assay: Antimicrobial activity against Escherichia coli assessed as growth inhibition after 24 hr by broth dilution method; type: functional
# [7] = test system: Bacillus subtilis; assay: Antimicrobial activity against Bacillus subtilis assessed as growth inhibition after 24 hr by broth dilution method; type: functional
# [8] = test system: Staphylococcus epidermidis; assay: Antimicrobial activity against Staphylococcus epidermidis assessed as growth inhibition after 24 hr by broth dilution method; type: functional
# [9] = test system: Aspergillus niger; assay: Antimicrobial activity against Aspergillus niger assessed as diameter of growth inhibition zone at 100 ug/ml after 48 hr by agar cup bioassay; type: functional; details: read-out: DIZ
# [10] = test system: Aspergillus niger; assay: Antimicrobial activity against Aspergillus niger assessed as diameter of growth inhibition zone at 150 ug/ml after 48 hr by agar cup bioassay; type: functional; details: read-out: DIZ
Compound,zone of inhibition at 30 µg/mL [1],growth inhibition (GI) [2],MIC [3],MIC [4],MIC [5],MIC [6],MIC [7],MIC [8],zone of inhibition at 100 µg/mL [9],zone of inhibition at 150 µg/mL [10]
OC(Cn1cncn1)(Cn1cncn1)c1ccc(F)cc1F [FLUCONAZOLE],30 mm,,,,,,,,,
O=C1NC(=S)NC(=O)C1=Cc1cn(-c2ccccc2)nc1-c1cc2cc3ccccc3cc2oc1=O,,inactive,150 µg/mL,150 µg/mL,150 µg/mL,600 µg/mL,300 µg/mL,300 µg/mL,,
O=C1NC(=S)NC(=O)C1=Cc1cn(-c2ccccc2)nc1-c1cc2ccccc2oc1=O,,inactive,150 µg/mL,300 µg/mL,150 µg/mL,600 µg/mL,300 µg/mL,150 µg/mL,,
O=C(O)c1cn(C2CC2)c2cc(N3CCNCC3)c(F)cc2c1=O [CIPROFLOXACIN],,,,,25 µg/mL,20 µg/mL,24 µg/mL,22 µg/mL,,
O=C1NC(=S)NC(=O)C1=Cc1cn(-c2ccccc2)nc1-c1cc2cc(Br)ccc2oc1=O,,inactive,600 µg/mL,300 µg/mL,150 µg/mL,300 µg/mL,600 µg/mL,300 µg/mL,,
O=C1NC(=O)C(=Cc2cn(-c3ccccc3)nc2-c2cc3cc4ccccc4cc3oc2=O)C(=O)N1,,inactive,300 µg/mL,150 µg/mL,300 µg/mL,300 µg/mL,150 µg/mL,300 µg/mL,,
O=C1NC(=O)C(=Cc2cn(-c3ccccc3)nc2-c2cc3cc(Br)ccc3oc2=O)C(=O)N1,,,150 µg/mL,600 µg/mL,150 µg/mL,600 µg/mL,150 µg/mL,150 µg/mL,14 mm,20 mm
O=C1NC(=O)C(=Cc2cn(-c3ccccc3)nc2-c2cc3cc(Br)c(Br)cc3oc2=O)C(=O)N1,,,150 µg/mL,150 µg/mL,300 µg/mL,150 µg/mL,150 µg/mL,150 µg/mL,7 mm,10 mm
O=C1NC(=S)NC(=O)C1=Cc1cn(-c2ccccc2)nc1-c1cc2cc(Br)c(Br)cc2oc1=O,,inactive,150 µg/mL,150 µg/mL,150 µg/mL,150 µg/mL,150 µg/mL,300 µg/mL,,
O=C1NC(=S)NC(=O)C1=Cc1cn(-c2ccccc2)nc1-c1cc2cc(Cl)ccc2oc1=O,,inactive,300 µg/mL,150 µg/mL,150 µg/mL,300 µg/mL,150 µg/mL,600 µg/mL,,
O=C1NC(=S)NC(=O)C1=Cc1cn(-c2ccccc2)nc1-c1cc2cc(Cl)c(Cl)cc2oc1=O,,inactive,150 µg/mL,300 µg/mL,150 µg/mL,600 µg/mL,300 µg/mL,300 µg/mL,,
O=C1NC(=O)C(=Cc2cn(-c3ccccc3)nc2-c2cc3ccccc3oc2=O)C(=O)N1,,inactive,300 µg/mL,150 µg/mL,150 µg/mL,300 µg/mL,300 µg/mL,300 µg/mL,,
O=C1NC(=O)C(=Cc2cn(-c3ccccc3)nc2-c2cc3cc(Cl)ccc3oc2=O)C(=O)N1,,inactive,150 µg/mL,150 µg/mL,150 µg/mL,150 µg/mL,150 µg/mL,150 µg/mL,,
O=C1NC(=O)C(=Cc2cn(-c3ccccc3)nc2-c2cc3cc(Cl)c(Cl)cc3oc2=O)C(=O)N1,,inactive,300 µg/mL,150 µg/mL,150 µg/mL,300 µg/mL,300 µg/mL,300 µg/mL,,
